In paper PMC2929362 (Bioorganic & medicinal chemistry, 2009):
Entries after “also recorded” stand apart in the source; their conditions may differ.

How the values were obtained:
human SIRT3 = target: T1, human SIRT3 (Homo sapiens, UniProt Q9NTG7); assay: Inhibition of a panel of human sirtuin homologues: SIRT3; format: biochemical
T1 sequence (Q9NTG7 1-399): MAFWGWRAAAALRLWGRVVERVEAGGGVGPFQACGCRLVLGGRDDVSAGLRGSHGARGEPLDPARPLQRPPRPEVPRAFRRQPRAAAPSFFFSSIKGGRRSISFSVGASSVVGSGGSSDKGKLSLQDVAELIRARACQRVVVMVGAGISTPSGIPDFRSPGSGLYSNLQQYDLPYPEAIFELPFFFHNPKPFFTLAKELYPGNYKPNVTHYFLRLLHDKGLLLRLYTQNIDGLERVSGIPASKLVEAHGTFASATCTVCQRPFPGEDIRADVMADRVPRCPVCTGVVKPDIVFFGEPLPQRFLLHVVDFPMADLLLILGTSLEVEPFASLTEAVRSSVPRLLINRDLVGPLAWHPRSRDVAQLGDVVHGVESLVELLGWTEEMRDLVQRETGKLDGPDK

Hst2 [1] = target: T2, Hst2 (Saccharomyces cerevisiae, UniProt P53686); assay: Reversibility assay; format: biochemical; conditions: Hst2 incubated with 10× IC50 of inhibitor, then 100-fold dilution
T2 sequence (P53686 1-294): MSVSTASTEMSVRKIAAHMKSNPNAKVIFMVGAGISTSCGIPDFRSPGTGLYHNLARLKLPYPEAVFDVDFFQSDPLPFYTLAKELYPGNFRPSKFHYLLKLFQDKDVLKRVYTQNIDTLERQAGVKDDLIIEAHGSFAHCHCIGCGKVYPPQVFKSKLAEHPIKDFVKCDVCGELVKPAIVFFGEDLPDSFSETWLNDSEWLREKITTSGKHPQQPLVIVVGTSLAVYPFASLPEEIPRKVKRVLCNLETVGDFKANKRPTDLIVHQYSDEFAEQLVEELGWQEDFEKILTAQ

Hst2 [2] = target: T2, Hst2; assay: biochemical; format: biochemical; conditions: for activity at 50 µM: read-out: % Activity at 50 μM; for activity at 500 µM: read-out: % Activity at 500 μM; for inhibition of Hst2 deacetylation by scaffold analogs (in words): SAR discussion
human SIRT2 = target: T3, human SIRT2 (Homo sapiens, UniProt Q8IXJ6); assay: Inhibition of a panel of human sirtuin homologues: SIRT2; format: biochemical
T3 sequence (Q8IXJ6 1-352 isoform Q8IXJ6-2): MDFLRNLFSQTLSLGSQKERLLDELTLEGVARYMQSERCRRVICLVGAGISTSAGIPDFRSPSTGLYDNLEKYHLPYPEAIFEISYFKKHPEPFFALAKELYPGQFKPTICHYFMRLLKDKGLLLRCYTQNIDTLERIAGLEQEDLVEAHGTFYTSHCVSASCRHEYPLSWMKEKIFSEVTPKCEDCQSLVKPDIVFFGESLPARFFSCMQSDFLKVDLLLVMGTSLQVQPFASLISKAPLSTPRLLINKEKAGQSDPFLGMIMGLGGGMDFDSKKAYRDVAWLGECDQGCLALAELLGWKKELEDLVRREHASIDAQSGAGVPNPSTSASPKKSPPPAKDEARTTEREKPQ

Hst2 [3] = target: T2, Hst2; assay: Competition assay; format: biochemical; conditions: for α: mixed inhibition model
Hst2 [4] = target: T2, Hst2; assay: biochemical; conditions: for IC50 (Table 5, scaffold 12 analogs, Hst2): Hst2 fluorigenic assay
[5] = target: T4, full length human SIRT1 (FL SIRT1) (Homo sapiens, UniProt Q96EB6); assay: Fluorigenic
T4 sequence (Q96EB6 1-747): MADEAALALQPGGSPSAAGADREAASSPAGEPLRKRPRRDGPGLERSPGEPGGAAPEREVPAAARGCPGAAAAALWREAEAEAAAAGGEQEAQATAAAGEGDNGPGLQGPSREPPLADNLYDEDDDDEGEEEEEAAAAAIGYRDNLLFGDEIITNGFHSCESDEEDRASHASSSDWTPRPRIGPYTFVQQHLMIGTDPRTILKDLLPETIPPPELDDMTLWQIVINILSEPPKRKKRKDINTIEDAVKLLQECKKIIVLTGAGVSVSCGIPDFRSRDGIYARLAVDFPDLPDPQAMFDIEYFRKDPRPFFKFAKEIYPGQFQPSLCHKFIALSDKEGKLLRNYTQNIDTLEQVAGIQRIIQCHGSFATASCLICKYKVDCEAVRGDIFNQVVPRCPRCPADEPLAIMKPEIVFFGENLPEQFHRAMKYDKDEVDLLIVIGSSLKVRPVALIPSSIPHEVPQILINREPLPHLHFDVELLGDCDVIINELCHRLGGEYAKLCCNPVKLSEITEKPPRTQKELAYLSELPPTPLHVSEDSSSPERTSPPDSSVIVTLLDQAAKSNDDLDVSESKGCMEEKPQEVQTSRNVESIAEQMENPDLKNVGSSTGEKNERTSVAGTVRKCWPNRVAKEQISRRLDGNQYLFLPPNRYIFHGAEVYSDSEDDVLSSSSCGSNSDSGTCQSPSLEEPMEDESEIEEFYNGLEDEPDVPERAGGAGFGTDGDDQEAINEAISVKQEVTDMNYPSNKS

**Q.** For CCc1ccc(OCCCC(=O)Oc2ccc3c(c2)oc(=O)c2ccccc23)cc1 [Compound 11, 4-(4-Ethyl-phenoxy)-butyric acid 6-oxo-6H-benzo[c]chromen-3-yl ester], which “inhibition of human SIRT3 (in words)” value (human SIRT3) is on record?
**A.** but not SIRT3

**Q.** And the “slope of progress curve, % of enzyme plus DMSO control” value (Hst2 [1])?
**A.** 82%

**Q.** What about the activity at 50 µM (Hst2 [2]) of the same compound?
**A.** < 1%

**Q.** And the activity at 500 µM (Hst2 [2])?
**A.** < 1%

**Q.** What about the “inhibition of human SIRT2 (in words)” value (human SIRT2) of the same compound?
**A.** potent inhibitor of SIRT2

**Q.** And the “Inhibition Mechanism” value (Hst2 [3]; substrate NAD+)?
**A.** fully non-competitive inhibition model; also recorded: NC (full)

**Q.** What about the “Inhibition Mechanism” value (Hst2 [3]; substrate acetyl-lysine) of the same compound?
**A.** partial non-competitive inhibition model; also recorded: NC (partial)

**Q.** With CCc1ccc(OCCCC(=O)Oc2ccc3c(C)cc(=O)oc3c2)cc1 [Compound 6802623] as the compound, how does the “inhibition of Hst2 deacetylation by scaffold analogs (in words)” value (shortened to “inhibition … by scaffold analogs (in words)”) (Hst2 [2]) read?
**A.** significantly reduced potency

**Q.** For C[S+]([O-])CCC(C(=O)O)N1C(=O)c2ccccc2C1=O (centres unmarked) [Compound 00032], which “IC50 (Table 5, scaffold 12 analogs, Hst2)” value (Hst2 [4]) is on record?
**A.** No inhibition

**Q.** With CC(C)C(=O)CCN1C(=O)c2ccccc2C1=O [Compound 04265] as the compound, how does the “IC50 (Table 5, scaffold 12 analogs, Hst2)” value (Hst2 [4]) read?
**A.** No inhibition

**Q.** For Cc1cc(Cc2cc(C)c(O)c(C)c2)cc(C)c1O [Compound 97252], which “inhibition … by scaffold analogs (in words)” value (Hst2 [2]) is on record?
**A.** most inhibitory activity

**Q.** O=C(O)CCCN1C(=O)c2ccccc2C1=O [Compound 47032] was tested. Which “IC50 (Table 5, scaffold 12 analogs, Hst2)” value (Hst2 [4]) did it give?
**A.** No inhibition

**Q.** With COCC#CC1c2cc(O)c(OC)cc2CCN1C (centres unmarked) [Compound 14a, 6-Methoxy-1-(3-methoxy-prop-1-ynyl)-2-methyl-1,2,3,4-tetrahydro-isoquinolin-7-ol] as the compound, how does the “inhibition of human SIRT3 (in words)” value (human SIRT3) read?
**A.** only weak inhibitory activity

**Q.** And the “inhibition of human SIRT2 (in words)” value (human SIRT2)?
**A.** only weak inhibitory activity

**Q.** And the “Inhibition Mechanism” value (Hst2 [3]; substrate NAD+)?
**A.** fully mixed inhibition model; also recorded: Mixed (full)

**Q.** And the α (Hst2 [3]; substrate NAD+)?
**A.** 2.6

**Q.** And the “Inhibition Mechanism” value (Hst2 [3]; substrate acetyl-lysine)?
**A.** fully non-competitive inhibition model; also recorded: NC (full)

**Q.** For COCC#CC1c2cc(O)c(OC)cc2CCN1Cc1ccc(OC)cc1 (centres unmarked) [Compound 14b], which activity at 50 µM (Hst2 [2]) is on record?
**A.** 92%

**Q.** What about the activity at 500 µM (Hst2 [2]) of the same compound?
**A.** 2%

**Q.** Nc1ccc2c(c1)C(=O)N(CCC(=O)O)C2 [Compound 42071] was tested. Which “IC50 (Table 5, scaffold 12 analogs, Hst2)” value (Hst2 [4]) did it give?
**A.** No inhibition

**Q.** What does the source list for O=C(O)CCN1Cc2ccccc2C1=O [Compound 12, 3-(1-Oxo-1,3-dihydro-isoindol-2-yl)-propionic acid]?
**A.** inhibition of human SIRT3 (in words) (human SIRT3): only weak inhibitory activity; slope of progress curve, % of enzyme plus DMSO control (Hst2 [1]): 96%; inhibition of human SIRT2 (in words) (human SIRT2): only weak inhibitory activity; Inhibition Mechanism (Hst2 [3]; substrate NAD+): fully non-competitive inhibition model; also recorded: NC (full); Inhibition Mechanism (Hst2 [3]; substrate acetyl-lysine): fully non-competitive inhibition model; also recorded: NC (full)

**Q.** Cc1ccc(OCCCC(=O)Oc2ccc3c(c2)CCC3)c(C)c1 [Compound 7985301] was tested. Which “inhibition … by scaffold analogs (in words)” value (Hst2 [2]) did it give?
**A.** significantly reduced potency

**Q.** Which “IC50 (Table 5, scaffold 12 analogs, Hst2)” value (Hst2 [4]) does the source give for O=C(O)CCN1C(=O)c2cc(Cl)c(Cl)cc2C1=O [Compound 39008] here?
**A.** No inhibition

**Q.** COc1ccc(OCCCC(=O)Oc2ccc3c(c2)CCC3)cc1 [Compound 6978945] was tested. Which “inhibition … by scaffold analogs (in words)” value (Hst2 [2]) did it give?
**A.** significantly reduced potency

**Q.** Which results are given for Oc1c(Cl)cc(Cl)c(Cl)c1Cc1c(O)c(Cl)cc(Cl)c1Cl [Compound 13, hexachlorophene]?
**A.** IC50 (Hst2 [4]): 12.5 ± 0.6 µM; IC50 [5]: 34 ± 10 µM; Ki (Hst2 [3]; with respect to NAD+ (varied 5-80 μM), acetyl-lysine substrate 100 μM): 3.9 ± 0.7 µM; Ki (Hst2 [3]; with respect to acetyl-lysine substrate (varied 3-50 μM), NAD+ 160 μM): 2.5 ± 1 µM; Inhibition Mechanism (Hst2 [3]; substrate NAD+): fully non-competitive inhibition model; also recorded: NC (full); Inhibition Mechanism (Hst2 [3]; substrate acetyl-lysine): fully mixed inhibition model; also recorded: Mixed (full); α (Hst2 [3]; substrate acetyl-lysine): 13.4

**Q.** How did the “IC50 (Table 5, scaffold 12 analogs, Hst2)” value (Hst2 [4]) turn out when O=C1c2ccccc2C(=O)N1CCBr [Compound 91032] was run?
**A.** No inhibition

**Q.** With O=C(O)CCN1C(=O)c2ccc(-c3nc4ccccc4c(=O)o3)cc2C1=O [Compound 47054] as the compound, how does the “IC50 (Table 5, scaffold 12 analogs, Hst2)” value (Hst2 [4]) read?
**A.** No inhibition

**Q.** Cc1cccc(OCC(=O)Oc2ccc3c(C)cc(=O)oc3c2)c1 [Compound 5140108] was tested. Which “inhibition … by scaffold analogs (in words)” value (Hst2 [2]) did it give?
**A.** showed some deacetylase inhibition
